Laboratory results taken from ChEMBL document CHEMBL5465560, “Selectivity Literature for EUbOPEN Chemogenomic Library” (2024).

Assays:
[1] = biological target: Mitogen-activated protein kinase 8 (Homo sapiens, UniProt P45983); experiment: Selectivity interaction (Kinase panel (literature)) EUB0001199aCl MAPK8; details: at 1 µM
[2] = biological target: Mitogen-activated protein kinase kinase kinase 4 (Homo sapiens) (UniProt Q9Y6R4); experiment: Selectivity interaction (KinomeScan (DiscoverX)) EUB0000229b MAP3K4; details: at 10 µM
Sequence of Mitogen-activated protein kinase kinase kinase 4 (Homo sapiens) (Q9Y6R4 whole entry): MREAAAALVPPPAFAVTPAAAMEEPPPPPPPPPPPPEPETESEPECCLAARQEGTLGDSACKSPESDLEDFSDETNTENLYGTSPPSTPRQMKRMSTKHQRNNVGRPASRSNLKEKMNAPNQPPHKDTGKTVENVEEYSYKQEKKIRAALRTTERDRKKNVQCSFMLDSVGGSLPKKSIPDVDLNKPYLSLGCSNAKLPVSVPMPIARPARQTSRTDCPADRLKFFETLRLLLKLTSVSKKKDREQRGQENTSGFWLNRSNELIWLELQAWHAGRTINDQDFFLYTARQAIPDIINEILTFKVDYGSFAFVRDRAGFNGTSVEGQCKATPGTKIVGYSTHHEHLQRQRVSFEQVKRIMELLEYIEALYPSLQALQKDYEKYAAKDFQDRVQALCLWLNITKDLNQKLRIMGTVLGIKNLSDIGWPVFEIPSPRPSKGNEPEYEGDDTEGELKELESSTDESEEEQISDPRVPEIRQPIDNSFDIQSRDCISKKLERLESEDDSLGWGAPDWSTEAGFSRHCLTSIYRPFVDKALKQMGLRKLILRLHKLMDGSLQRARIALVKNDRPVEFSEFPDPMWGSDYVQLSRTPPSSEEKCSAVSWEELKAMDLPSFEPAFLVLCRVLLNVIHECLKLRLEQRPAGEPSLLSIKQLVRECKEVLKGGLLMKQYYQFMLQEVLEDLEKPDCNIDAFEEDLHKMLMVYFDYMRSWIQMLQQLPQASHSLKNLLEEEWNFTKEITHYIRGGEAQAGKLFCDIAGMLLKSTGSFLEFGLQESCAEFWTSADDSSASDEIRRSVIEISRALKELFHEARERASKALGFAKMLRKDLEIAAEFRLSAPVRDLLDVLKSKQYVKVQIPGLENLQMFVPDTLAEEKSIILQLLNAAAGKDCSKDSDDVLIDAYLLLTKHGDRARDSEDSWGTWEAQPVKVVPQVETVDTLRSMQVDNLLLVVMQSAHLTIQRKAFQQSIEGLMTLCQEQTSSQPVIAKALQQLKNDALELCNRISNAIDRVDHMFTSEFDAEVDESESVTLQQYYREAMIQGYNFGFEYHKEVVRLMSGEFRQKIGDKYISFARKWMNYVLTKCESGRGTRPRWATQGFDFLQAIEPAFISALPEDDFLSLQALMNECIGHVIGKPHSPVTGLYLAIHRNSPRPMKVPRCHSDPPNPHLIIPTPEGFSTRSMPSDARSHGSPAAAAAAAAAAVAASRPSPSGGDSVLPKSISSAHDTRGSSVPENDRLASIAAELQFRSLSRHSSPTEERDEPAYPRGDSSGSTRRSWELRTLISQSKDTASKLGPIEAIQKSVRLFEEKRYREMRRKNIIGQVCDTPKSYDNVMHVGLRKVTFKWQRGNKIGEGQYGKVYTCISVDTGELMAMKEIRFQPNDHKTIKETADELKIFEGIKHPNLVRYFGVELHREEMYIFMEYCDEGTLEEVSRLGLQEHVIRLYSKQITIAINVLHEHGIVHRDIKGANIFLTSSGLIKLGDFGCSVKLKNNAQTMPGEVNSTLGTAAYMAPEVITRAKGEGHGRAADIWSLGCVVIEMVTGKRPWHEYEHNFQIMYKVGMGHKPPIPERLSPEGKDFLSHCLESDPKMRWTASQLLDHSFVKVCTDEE

[3] = biological target: T1, STE20-related kinase adapter protein alpha (Homo sapiens) (UniProt Q7RTN6); experiment: Selectivity interaction (Kinase panel (KiNativ target engagement assay in Jurkat cells)) EUB0001635a STRADA; type: cell-based; details: Selectivity number of off-targets 0.0, Selectivity number of targets 233.0, Source Knowledge https://www.sciencedirect.com/science/article/pii/S2451945619300674?via%3Dihub, at 1 µM
T1 sequence (whole entry): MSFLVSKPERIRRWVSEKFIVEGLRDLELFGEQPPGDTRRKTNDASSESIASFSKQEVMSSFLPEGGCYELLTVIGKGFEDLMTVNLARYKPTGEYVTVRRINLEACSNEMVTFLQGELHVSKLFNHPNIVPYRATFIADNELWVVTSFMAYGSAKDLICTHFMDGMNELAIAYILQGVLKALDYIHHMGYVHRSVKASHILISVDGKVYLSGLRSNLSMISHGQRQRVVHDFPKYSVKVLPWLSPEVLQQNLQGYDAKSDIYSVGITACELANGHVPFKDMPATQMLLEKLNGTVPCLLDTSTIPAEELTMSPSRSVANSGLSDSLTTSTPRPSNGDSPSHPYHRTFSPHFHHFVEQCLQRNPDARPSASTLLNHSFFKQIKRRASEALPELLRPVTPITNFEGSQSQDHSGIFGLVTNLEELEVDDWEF

[4] = biological target: Serine/threonine-protein kinase pim-2 (Homo sapiens, UniProt Q9P1W9); details: at 10 µM
Sequence of Serine/threonine-protein kinase pim-2 (Q9P1W9 whole entry, looked up, canonical isoform): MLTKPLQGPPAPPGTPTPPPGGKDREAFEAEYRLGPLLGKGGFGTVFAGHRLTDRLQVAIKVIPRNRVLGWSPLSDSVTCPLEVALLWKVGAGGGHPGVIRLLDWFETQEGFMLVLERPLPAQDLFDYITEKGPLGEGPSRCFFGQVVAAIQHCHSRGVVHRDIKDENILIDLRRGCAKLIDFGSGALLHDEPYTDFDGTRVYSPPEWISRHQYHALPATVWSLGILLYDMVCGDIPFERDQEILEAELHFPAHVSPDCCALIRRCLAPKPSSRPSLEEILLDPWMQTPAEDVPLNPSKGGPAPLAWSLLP

[5] = tested on: Phosphatidylinositol 4,5-bisphosphate 3-kinase catalytic subunit alpha isoform (Homo sapiens), P42336 [H1047L]; details: at 10 µM
Sequence of Phosphatidylinositol 4,5-bisphosphate 3-kinase catalytic subunit alpha isoform (Homo sapiens), P42336 [H1047L] (P42336 whole entry H1047L, canonical isoform): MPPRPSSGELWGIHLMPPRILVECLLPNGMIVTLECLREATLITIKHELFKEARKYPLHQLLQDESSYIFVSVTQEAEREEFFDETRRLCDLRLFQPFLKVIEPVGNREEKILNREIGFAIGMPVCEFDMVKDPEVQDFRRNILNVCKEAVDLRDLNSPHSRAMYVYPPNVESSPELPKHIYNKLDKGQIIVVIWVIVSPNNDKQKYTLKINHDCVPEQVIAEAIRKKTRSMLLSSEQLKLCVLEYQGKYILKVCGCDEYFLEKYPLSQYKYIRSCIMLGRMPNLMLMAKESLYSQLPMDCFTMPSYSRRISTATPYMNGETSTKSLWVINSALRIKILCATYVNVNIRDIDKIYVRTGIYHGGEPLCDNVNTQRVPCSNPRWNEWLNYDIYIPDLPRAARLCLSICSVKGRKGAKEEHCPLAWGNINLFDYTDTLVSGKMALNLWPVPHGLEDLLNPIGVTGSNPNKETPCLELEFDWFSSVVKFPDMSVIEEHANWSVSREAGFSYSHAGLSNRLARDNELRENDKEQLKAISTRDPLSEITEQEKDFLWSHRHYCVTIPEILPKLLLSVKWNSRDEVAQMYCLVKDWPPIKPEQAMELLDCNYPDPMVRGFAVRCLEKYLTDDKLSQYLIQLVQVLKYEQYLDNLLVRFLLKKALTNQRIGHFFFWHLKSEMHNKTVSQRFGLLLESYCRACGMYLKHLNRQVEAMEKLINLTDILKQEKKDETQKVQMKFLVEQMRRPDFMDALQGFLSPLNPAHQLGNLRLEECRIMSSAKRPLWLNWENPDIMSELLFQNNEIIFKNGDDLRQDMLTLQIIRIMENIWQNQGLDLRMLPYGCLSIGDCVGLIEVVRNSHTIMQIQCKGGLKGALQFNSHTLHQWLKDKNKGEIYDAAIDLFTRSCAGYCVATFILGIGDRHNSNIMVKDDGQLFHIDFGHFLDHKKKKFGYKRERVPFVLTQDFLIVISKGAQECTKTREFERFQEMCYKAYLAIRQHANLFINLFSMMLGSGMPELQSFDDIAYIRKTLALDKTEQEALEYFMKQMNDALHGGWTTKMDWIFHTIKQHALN

[6] = tested on: T2, Receptor-type tyrosine-protein kinase FLT3 (Homo sapiens), P36888 [D835H]; details: at 10 µM
T2 sequence (whole entry): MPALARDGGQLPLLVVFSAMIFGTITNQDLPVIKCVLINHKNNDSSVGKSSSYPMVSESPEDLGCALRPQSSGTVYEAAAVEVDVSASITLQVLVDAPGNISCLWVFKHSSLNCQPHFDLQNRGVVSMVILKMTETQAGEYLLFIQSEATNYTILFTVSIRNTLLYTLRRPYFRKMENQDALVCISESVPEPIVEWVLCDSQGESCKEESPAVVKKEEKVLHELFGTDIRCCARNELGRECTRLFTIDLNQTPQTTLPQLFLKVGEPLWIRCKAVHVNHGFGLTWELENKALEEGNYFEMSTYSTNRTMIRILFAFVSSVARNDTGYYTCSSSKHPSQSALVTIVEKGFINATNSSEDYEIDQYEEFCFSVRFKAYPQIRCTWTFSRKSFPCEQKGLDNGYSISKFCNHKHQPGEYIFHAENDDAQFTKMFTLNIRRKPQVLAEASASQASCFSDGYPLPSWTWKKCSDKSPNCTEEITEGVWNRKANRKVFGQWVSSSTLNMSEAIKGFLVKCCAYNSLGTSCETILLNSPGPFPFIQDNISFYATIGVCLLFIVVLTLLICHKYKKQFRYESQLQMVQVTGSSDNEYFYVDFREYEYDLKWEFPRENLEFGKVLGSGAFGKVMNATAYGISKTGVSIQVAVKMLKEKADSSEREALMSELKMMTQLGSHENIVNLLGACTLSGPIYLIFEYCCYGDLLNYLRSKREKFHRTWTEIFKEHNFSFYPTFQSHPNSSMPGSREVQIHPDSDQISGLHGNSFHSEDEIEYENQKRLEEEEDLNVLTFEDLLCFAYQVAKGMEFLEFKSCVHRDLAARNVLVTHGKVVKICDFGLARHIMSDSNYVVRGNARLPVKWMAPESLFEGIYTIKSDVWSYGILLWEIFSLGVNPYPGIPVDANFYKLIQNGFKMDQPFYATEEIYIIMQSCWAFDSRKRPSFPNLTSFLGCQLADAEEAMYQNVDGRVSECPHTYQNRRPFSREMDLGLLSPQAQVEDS

[7] = biological target: T3, Ephrin type-A receptor 8 (Homo sapiens) (UniProt P29322); experiment: Selectivity interaction (Upstate Kinase Profiler service (Millipore)) EUB0000056c EPHA8; details: at 1 µM
T3 sequence (whole entry): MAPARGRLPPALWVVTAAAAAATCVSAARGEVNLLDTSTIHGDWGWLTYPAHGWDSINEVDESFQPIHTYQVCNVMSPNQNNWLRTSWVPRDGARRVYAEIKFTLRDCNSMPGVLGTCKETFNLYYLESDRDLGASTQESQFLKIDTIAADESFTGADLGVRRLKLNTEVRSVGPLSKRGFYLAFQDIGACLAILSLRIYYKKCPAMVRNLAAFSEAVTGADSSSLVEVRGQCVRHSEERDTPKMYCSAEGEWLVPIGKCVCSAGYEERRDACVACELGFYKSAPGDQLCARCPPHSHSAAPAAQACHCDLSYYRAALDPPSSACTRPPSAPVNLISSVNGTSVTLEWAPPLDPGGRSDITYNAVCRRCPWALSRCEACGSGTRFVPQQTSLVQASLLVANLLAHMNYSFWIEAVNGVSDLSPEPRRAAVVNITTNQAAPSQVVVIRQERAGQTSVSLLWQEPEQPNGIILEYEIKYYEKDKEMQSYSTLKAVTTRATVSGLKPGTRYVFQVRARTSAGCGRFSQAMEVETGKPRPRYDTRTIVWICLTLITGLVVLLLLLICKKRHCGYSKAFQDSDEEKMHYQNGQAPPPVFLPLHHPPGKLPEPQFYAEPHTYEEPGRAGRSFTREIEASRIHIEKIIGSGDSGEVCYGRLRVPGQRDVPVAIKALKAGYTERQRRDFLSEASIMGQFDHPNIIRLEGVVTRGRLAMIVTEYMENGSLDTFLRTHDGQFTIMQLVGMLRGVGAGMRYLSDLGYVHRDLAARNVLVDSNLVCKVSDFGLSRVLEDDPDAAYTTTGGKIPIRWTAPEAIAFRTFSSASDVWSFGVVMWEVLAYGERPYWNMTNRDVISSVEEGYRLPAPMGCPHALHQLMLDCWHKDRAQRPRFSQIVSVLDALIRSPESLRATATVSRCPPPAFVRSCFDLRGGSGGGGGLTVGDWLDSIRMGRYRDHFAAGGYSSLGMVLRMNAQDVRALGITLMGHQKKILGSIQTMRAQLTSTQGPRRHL

Sequence of Mitogen-activated protein kinase 8 (P45983 whole entry): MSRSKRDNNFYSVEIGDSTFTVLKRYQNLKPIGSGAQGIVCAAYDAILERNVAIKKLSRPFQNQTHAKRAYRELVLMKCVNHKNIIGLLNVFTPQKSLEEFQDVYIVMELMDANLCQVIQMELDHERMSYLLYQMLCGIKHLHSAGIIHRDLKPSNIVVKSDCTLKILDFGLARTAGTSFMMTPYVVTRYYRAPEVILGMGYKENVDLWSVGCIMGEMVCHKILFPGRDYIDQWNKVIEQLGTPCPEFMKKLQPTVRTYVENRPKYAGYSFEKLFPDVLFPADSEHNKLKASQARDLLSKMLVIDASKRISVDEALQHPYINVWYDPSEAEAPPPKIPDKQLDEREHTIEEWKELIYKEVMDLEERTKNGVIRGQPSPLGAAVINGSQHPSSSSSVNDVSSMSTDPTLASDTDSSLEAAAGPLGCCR

Compound: CN1Cc2nccc(-c3cn(C)nc3-c3ccc(F)cc3)c2C1=O
- % of inhibition [1]: -2%

Compound: COc1cc(N(C)c2ccnc3ccc(C(F)(F)F)cc23)cc(OC)c1OC
- % binding [2]: 100%

Compound: C=CC(=O)Nc1ccc(C(=O)Nc2[nH]nc3c2CN(C(=O)N[C@H](CN(C)C)c2ccccc2)C3(C)C)cc1
- % of engagement [3]: 2.1%

Compound: CCN(CC)CCCCNc1ncc2cc(-c3cc(OC)cc(OC)c3)c(NC(=O)NC(C)(C)C)nc2n1
- % of control [4]: 100%

Compound: COCC(=O)NC/C=C/c1ccc2ncnc(Nc3ccc(Oc4ccc(C)nc4)c(C)c3)c2c1 [CP-724714]
- % of control [5]: 100%

Compound: Cc1cc([C@@H](C)Nc2ccccc2C(=O)O)c2nc(N3CCOCC3)cc(=O)n2c1 [AZD-6482]
- % of control [6]: 27%

Compound: Cc1ccc(-c2ccc3c(ccc4sc5c(c43)NC[C@@H](C)NC5=O)n2)cn1
- % of inhibition [7]: 1%
